In patent US20170008921A1, “C-3 NOVEL TRITERPENONE WITH C-28 REVERSE AMIDE DERIVATIVES AS HIV INHIBITORS” (HETERO RESEARCH FOUNDATION, priority 2015, published 2017) one finds AUC(0-t), Cmax and viability data, which are given here for seven molecules.

Data set [1] can be described thus: Single dose oral pharmacokinetic study. The class given is in vivo. As to conditions: mouse, Mice oral PK @30 mg/kg, plasma, vehicle 10% Solutol+20% PEG; for AUC(0-t): read-out: AUC0-t; for Cmax: read-out: Cmax. The procedure: The test item was administered through oral route to animals (rat/mice) at 30 mg/kg dose in a suitable vehicle (10% Solutol+20% PEG) at 10 ml/kg dose volume. Blood samples (˜50 μL at each time point) were collected from retro-orbital plexus using K3 EDTA as anticoagulant in eppendorf tubes at defined time intervals 30 minutes, 1 hour, 2 hour, 4 hour, 8 hour, 24 hour & 48 hour under light ether anaesthesia. The samples were centrifuged at 3500×g to separate plasma and stored at −80° C. until analysis. Plasma 25 μl for Mice were processed as per described in sample preparation.
Standard solutions of the test compound 1 mg/mL solutions were prepared in DMSO and further dilutions were made in methanol. […] To the test compound plasma extraction was carried out using Acetonitrile precipitation. After reconstitution with solvent (50% Acetonitrile in Buffer) samples were analyzed by LCMSMS to get the concentrations to calculate PK Parameters.

Data set [2] in a line: Cyto-toxicity (MTT assay). The class given is cell-based. In general terms: Formazan colour is commonly taken as a measure of viable cells.

In general, Cmax refers to the highest concentration seen after dosing. As a reminder, the viability is a per cent measure of how many cells are alive, often set against a control. Low readings indicate more harm to the cells, high ones less harm to the cells.

The structures appear in SMILES notation.

Turning to `CC(C)C1=C2[C@H]3CC[C@@H]4[C@@]5(C)CC[C@H](OC(=O)[C@H]6C[C@@H](C(=O)O)C6(C)C)C(C)(C)[C@@H]5CC[C@@]4(C)[C@]3(C)CC[C@@]2(NC(=O)C(C)(C)NC(=O)c2ccc(N)nc2)CC1=O` [Example 6, (1R,3S)-3-((((3aR,5aR,5bR,7aR,9S,11aR,11bR,13aS)-3a-(2-(6-aminonicotinamido)-2-methylpropanamido)-1-isopropyl-5a,5b,8,8,11a-pentamethyl-2-oxo-3,3a,4,5,5a,5b,6,7,7a,8,9,10,11,11a,11b,12,13,13a-octadecahydro-2H-cyclopenta[a]chrysen-9-yl)oxy)carbonyl)-2,2-dimethylcyclobutane-1-carboxylic acid], in data set [1], the AUC(0-t) amounted to 100 µg·h/mL and the Cmax worked out at 11100 ng/mL. In data set [2], this molecule had a viability at 4 days, 0.01 µM of 60%; a viability at 4 days, 0.1 µM of 19%; a viability at 4 days, 1 µM of 4%.

As to `Cc1cnc(C(=O)NC(C)(C)C(=O)N[C@@]23CC[C@]4(C)[C@H](CC[C@@H]5[C@@]6(C)CC[C@H](OC(=O)[C@H]7C[C@@H](C(=O)O)C7(C)C)C(C)(C)[C@@H]6CC[C@]54C)C2=C(C(C)C)C(=O)C3)cn1` [Example 7, (1R,3S)-3-((((3aR,5aR,5bR,7aR,9S,11aR,11bR,13aS)-1-isopropyl-5a,5b,8,8,11a-pentamethyl-3a-(2-methyl-2-(5-methylpyrazine-2-carboxamido)propanamido)-2-oxo-3,3a,4,5,5a,5b,6,7,7a,8,9,10,11,11a,11b,12,13,13a-octadecahydro-2H-cyclopenta[a]chrysen-9-yl)oxy)carbonyl)-2,2-dimethylcyclobutane-1-carboxylic acid], in data set [1], the AUC(0-t) stood at 517 µg·h/mL and the Cmax is 41900 ng/mL. Moreover, in data set [2], the viability at 4 days, 0.01 µM was 28%; the viability at 4 days, 0.1 µM is 9%; the viability at 4 days, 1 µM was 0%.

As for `CC(C)C1=C2[C@H]3CC[C@@H]4[C@@]5(C)CC[C@H](OC(=O)[C@H]6C[C@@H](C(=O)O)C6(C)C)C(C)(C)[C@@H]5CC[C@@]4(C)[C@]3(C)CC[C@@]2(NC(=O)C(C)(C)NC(=O)CN2CCCCC2)CC1=O` [Example 10, (1R,3S)-3-((((3aR,5aR,5bR,7aR,9S,11aR,11bR,13aS)-1-isopropyl-5a,5b,8,8,11a-pentamethyl-3a-(2-methyl-2-(2-(piperidin-1-yl)acetamido)propan amido)-2-oxo-3,3a,4,5,5a,5b,6,7,7a,8,9,10,11,11a,11b,12,13,13a-octadecahydro-2H-cyclopenta[a]chrysen-9-yl)oxy)carbonyl)-2,2-dimethylcyclobutane-1-carboxylic acid], in data set [1], the AUC(0-t) was determined as 69.8 µg·h/mL and the Cmax is 9790 ng/mL. Besides, in data set [2], the viability at 4 days, 0.01 µM was 67%; the viability at 4 days, 0.1 µM was 1%; the viability at 4 days, 1 µM is 0%.

With `CC(C)C1=C2[C@H]3CC[C@@H]4[C@@]5(C)CC[C@H](OC(=O)[C@H]6C[C@@H](C(=O)O)C6(C)C)C(C)(C)[C@@H]5CC[C@@]4(C)[C@]3(C)CC[C@@]2(NC(=O)C(C)(C)NC(=O)c2ccc3[nH]cnc3c2)CC1=O` [Example 12, (1R,3S)-3-((((3aR,5aR,5bR,7aR,9S,11aR,11bR,13aS)-3a-(2-(1H-benzo[d]imidazole-5-carboxamido)-2-methylpropanamido)-1-isopropyl-5a,5b,8,8,11a-pentamethyl-2-oxo-3,3a,4,5,5a,5b,6,7,7a,8,9,10,11,11a,11b,12,13,13a-octadecahydro-2H-cyclopenta[a]chrysen-9-yl)oxy)carbonyl)-2,2-dimethylcyclobutane-1-carboxylic acid], in data set [1], the AUC(0-t) was found to be 61.3 µg·h/mL and the Cmax came to 8540 ng/mL. Also, in data set [2], the viability at 4 days, 0.01 µM was found to be 42%; the viability at 4 days, 0.1 µM was found to be 7%; the viability at 4 days, 1 µM was 3%.

As for `Cc1ccc(-c2nc3cc(C(=O)NC(C)(C)C(=O)N[C@@]45CC[C@]6(C)[C@H](CC[C@@H]7[C@@]8(C)CC[C@H](OC(=O)[C@H]9C[C@@H](C(=O)O)C9(C)C)C(C)(C)[C@@H]8CC[C@]76C)C4=C(C(C)C)C(=O)C5)ccc3[nH]2)cn1` [Example 13, (1R,3S)-3-((((3aR,5aR,5bR,7aR,9S,11aR,11bR,13aS)-1-isopropyl-5a,5b,8,8,11a-pentamethyl-3a-(2-methyl-2-(2-(6-methylpyridin-3-yl)-1H-benzo[d]imidazole-5-carboxamido)propanamido)-2-oxo-3,3a,4,5,5a,5b,6,7,7a,8,9,10,11,11a,11b,12, 13,13a-octadecahydro-2H-cyclopenta[a]chrysen-9-yl)oxy)carbonyl)-2,2-dimethylcyclobutane-1-carboxylic acid], in data set [1], the AUC(0-t) worked out at 18.2 µg·h/mL and the Cmax is 2720 ng/mL. In data set [2], the viability at 4 days, 0.01 µM was determined as 45%; the viability at 4 days, 0.1 µM stood at 10%; the viability at 4 days, 1 µM turned out to be 4%.

Regarding `Cc1nc(C)c(C(=O)NC(C)(C)C(=O)N[C@@]23CC[C@]4(C)[C@H](CC[C@@H]5[C@@]6(C)CC[C@H](OC(=O)[C@H]7C[C@@H](C(=O)O)C7(C)C)C(C)(C)[C@@H]6CC[C@]54C)C2=C(C(C)C)C(=O)C3)s1` [Example 14, (1R,3S)-3-((((3aR,5aR,5bR,7aR,9S,11aR,11bR,13aS)-3a-(2-(2,4-dimethylthiazole-5-carboxamido)-2-methylpropanamido)-1-isopropyl-5a,5b,8,8,11a-pentamethyl-2-oxo-3,3a,4,5,5a,5b,6,7,7a,8,9,10,11,11a,11b,12,13,13a-octadecahydro-2H-cyclopenta[a]chrysen-9-yl)oxy)carbonyl)-2,2-dimethylcyclobutane-1-carboxylic acid], in data set [1], the AUC(0-t) amounted to 377 µg·h/mL and the Cmax was found to be 26800 ng/mL. In data set [2], the viability at 4 days, 0.01 µM worked out at 44%; the viability at 4 days, 0.1 µM was determined as 8%; the viability at 4 days, 1 µM amounted to 2%.

For `CC(C)C1=C2[C@H]3CC[C@@H]4[C@@]5(C)CC[C@H](OC(=O)[C@H]6C[C@@H](C(=O)O)C6(C)C)C(C)(C)[C@@H]5CC[C@@]4(C)[C@]3(C)CC[C@@]2(NC(=O)C(C)(C)NC(=O)c2ccc3[nH]c(-c4cnccn4)nc3c2)CC1=O` [Example 15, (1R,3S)-3-((((3aR,5aR,5bR,7aR,9S,11aR,11bR,13aS)-1-isopropyl-5a,5b,8,8,11a-pentamethyl-3a-(2-methyl-2-(2-(pyrazin-2-yl)-1H-benzo[d]imidazole-5-carboxamido)propanamido)-2-oxo-3,3a,4,5,5a,5b,6,7,7a,8,9,10,11,11a,11b,12,13,13a-octadecahydro-2H-cyclopenta[a]chrysen-9-yl)oxy)carbonyl)-2,2-dimethylcyclobutane-1-carboxylic acid], in data set [1], the AUC(0-t) stood at 141 µg·h/mL and the highest concentration (Cmax) stood at 12800 ng/mL. In data set [2], this molecule displayed a viability at 4 days, 0.01 µM of 44%; a viability at 4 days, 0.1 µM of 8%; a viability at 4 days, 1 µM of 2%.
